Organism: Rattus norvegicus
Test: DrugMatrix - Regimen: Daily Repeat
Type: toxicity, organism-based, Sprague-Dawley
Design: regimen Daily Repeat, gender Male, age 6-8 weeks
Settings: in vivo, po, route oral GAVAGE, vehicle .5 % CMC; for ABSOLUTE BASOPHIL / ABSOLUTE EOSINOPHIL / ABSOLUTE LYMPHOCYTE / ABSOLUTE MONOCYTE / ABSOLUTE SEGMENTED NEUTROPHIL / BASOPHIL / EOSINOPHIL / ERYTHROCYTE COUNT / HEMATOCRIT / HEMOGLOBIN / LEUKOCYTE COUNT / LYMPHOCYTE / MEAN CORPUSCULAR HEMOGLOBIN / MEAN CORPUSCULAR HEMOGLOBIN CONCENTRATION / MEAN CORPUSCULAR VOLUME / MONOCYTE / NEUTROPHIL / NUCLEATED RED BLOOD CELLS / PLATELET COUNT: tissue Blood; for ALANINE AMINOTRANSFERASE / ALBUMIN / ALKALINE PHOSPHATASE / ASPARTATE AMINOTRANSFERASE / BLOOD UREA NITROGEN / CARBON DIOXIDE / CHLORIDE / CHOLESTEROL / CREATINE PHOSPHOKINASE / CREATININE / GLUCOSE / LACTATE DEHYDROGENASE / LIPASE / PHOSPHORUS / POTASSIUM / SODIUM / TOTAL BILIRUBIN / TOTAL PROTEIN / URIC ACID: tissue Plasma
[1] = 200 mg/kg, 120 h, dose level Low, time 5 day
[2] = 2500 mg/kg, 72 h, dose level High, time 3 day
[3] = 2500 mg/kg, 120 h, dose level High, time 5 day

With `CCC1=C(C)CN(C(=O)NCCc2ccc(S(=O)(=O)NC(=O)N[C@H]3CC[C@H](C)CC3)cc2)C1=O` [GLIMEPIRIDE] the “ABSOLUTE BASOPHIL” value [1] was 0 CELLS/uL, the “ABSOLUTE EOSINOPHIL” value [1] was 0 CELLS/uL and the “ABSOLUTE LYMPHOCYTE” value [1] was 12890.33 CELLS/uL. The “ABSOLUTE MONOCYTE” value [1] was 43.33 CELLS/uL, the “ABSOLUTE SEGMENTED NEUTROPHIL” value [1] was 866.33 CELLS/uL and the BASOPHIL [1] was 0%. For the same compound, the EOSINOPHIL [1] was 0%, the “ERYTHROCYTE COUNT” value [1] was 5.84 x10E6/uL and the HEMATOCRIT [1] was 36.5%. For the same compound, the HEMOGLOBIN [1] was 14.63 G/DL, the “LEUKOCYTE COUNT” value [1] was 13.8 x10E3/uL and the LYMPHOCYTE [1] was 93.33%. For the same compound, the “MEAN CORPUSCULAR HEMOGLOBIN” value [1] was 25.03 pg, the “MEAN CORPUSCULAR HEMOGLOBIN CONCENTRATION” value [1] was 40.1 G/DL and the “MEAN CORPUSCULAR VOLUME” value [1] was 62.43 fL. For the same compound, the MONOCYTE [1] was 0.33%, the NEUTROPHIL [1] was 6.33% and the “NUCLEATED RED BLOOD CELLS” value [1] was 0 /100WBC. For the same compound, the “PLATELET COUNT” value [1] was 1124.67 x10E3/uL, the “ALANINE AMINOTRANSFERASE” value [1] was 58.33 u/L and the ALBUMIN [1] was 4.43 G/DL. For the same compound, the “ALKALINE PHOSPHATASE” value [1] was 402 u/L, the “ASPARTATE AMINOTRANSFERASE” value [1] was 81.33 u/L and the “BLOOD UREA NITROGEN” value [1] was 15.67 mg/dL. The “CARBON DIOXIDE” value [1] was 31.67 mmol/L, the CHLORIDE [1] was 101.33 MEQ/L and the CHOLESTEROL [1] was 75 mg/dL. The “CREATINE PHOSPHOKINASE” value [1] was 241.33 u/L, the CREATININE [1] was 0.18 mg/dL and the GLUCOSE [1] was 154 mg/dL. The “LACTATE DEHYDROGENASE” value [1] was 123.67 u/L, the LIPASE [1] was 10 u/L and the PHOSPHORUS [1] was 10.53 mg/dL. For the same compound, the POTASSIUM [1] was 6.31 MEQ/L, the SODIUM [1] was 143.8 MEQ/L and the “TOTAL BILIRUBIN” value [1] was 0.2 mg/dL. The “TOTAL PROTEIN” value [1] was 6.23 G/DL, the “URIC ACID” value [1] was 1.13 mg/dL and the “ABSOLUTE BASOPHIL” value [2] was 0 CELLS/uL. The “ABSOLUTE EOSINOPHIL” value [2] was 0 CELLS/uL, the “ABSOLUTE LYMPHOCYTE” value [2] was 11733.33 CELLS/uL and the “ABSOLUTE MONOCYTE” value [2] was 88 CELLS/uL. For the same compound, the “ABSOLUTE SEGMENTED NEUTROPHIL” value [2] was 778.67 CELLS/uL, the BASOPHIL [2] was 0% and the EOSINOPHIL [2] was 0%. The “ERYTHROCYTE COUNT” value [2] was 5.59 x10E6/uL, the HEMATOCRIT [2] was 36.03% and the HEMOGLOBIN [2] was 14.23 G/DL. For the same compound, the “LEUKOCYTE COUNT” value [2] was 12.6 x10E3/uL, the LYMPHOCYTE [2] was 92.67% and the “MEAN CORPUSCULAR HEMOGLOBIN” value [2] was 25.47 pg. For the same compound, the “MEAN CORPUSCULAR HEMOGLOBIN CONCENTRATION” value [2] was 39.6 G/DL, the “MEAN CORPUSCULAR VOLUME” value [2] was 64.33 fL and the MONOCYTE [2] was 0.67%. For the same compound, the NEUTROPHIL [2] was 6.67%, the “NUCLEATED RED BLOOD CELLS” value [2] was 0.33 /100WBC and the “PLATELET COUNT” value [2] was 1148 x10E3/uL. The “ALANINE AMINOTRANSFERASE” value [2] was 60.33 u/L, the ALBUMIN [2] was 4.2 G/DL and the “ALKALINE PHOSPHATASE” value [2] was 398.33 u/L. The “ASPARTATE AMINOTRANSFERASE” value [2] was 110 u/L, the “BLOOD UREA NITROGEN” value [2] was 16.67 mg/dL and the “CARBON DIOXIDE” value [2] was 28 mmol/L. For the same compound, the CHLORIDE [2] was 102.67 MEQ/L, the CHOLESTEROL [2] was 61 mg/dL and the “CREATINE PHOSPHOKINASE” value [2] was 802 u/L. The CREATININE [2] was 0.14 mg/dL, the GLUCOSE [2] was 165.67 mg/dL and the “LACTATE DEHYDROGENASE” value [2] was 190 u/L. For the same compound, the LIPASE [2] was 10.33 u/L, the PHOSPHORUS [2] was 10.87 mg/dL and the POTASSIUM [2] was 5.99 MEQ/L. For the same compound, the SODIUM [2] was 143.87 MEQ/L, the “TOTAL BILIRUBIN” value [2] was 0.1 mg/dL and the “TOTAL PROTEIN” value [2] was 5.73 G/DL. The “URIC ACID” value [2] was 1.47 mg/dL, the “ABSOLUTE BASOPHIL” value [3] was 0 CELLS/uL and the “ABSOLUTE EOSINOPHIL” value [3] was 80.67 CELLS/uL. For the same compound, the “ABSOLUTE LYMPHOCYTE” value [3] was 11006.67 CELLS/uL, the “ABSOLUTE MONOCYTE” value [3] was 128 CELLS/uL and the “ABSOLUTE SEGMENTED NEUTROPHIL” value [3] was 1118 CELLS/uL. The BASOPHIL [3] was 0%, the EOSINOPHIL [3] was 0.67% and the “ERYTHROCYTE COUNT” value [3] was 5.89 x10E6/uL. For the same compound, the HEMATOCRIT [3] was 36.97%, the HEMOGLOBIN [3] was 14.8 G/DL and the “LEUKOCYTE COUNT” value [3] was 12.33 x10E3/uL. The LYMPHOCYTE [3] was 89.33%, the “MEAN CORPUSCULAR HEMOGLOBIN” value [3] was 25.13 pg and the “MEAN CORPUSCULAR HEMOGLOBIN CONCENTRATION” value [3] was 40.07 G/DL. The “MEAN CORPUSCULAR VOLUME” value [3] was 62.73 fL, the MONOCYTE [3] was 1% and the NEUTROPHIL [3] was 9%. For the same compound, the “NUCLEATED RED BLOOD CELLS” value [3] was 0 /100WBC, the “PLATELET COUNT” value [3] was 1082.67 x10E3/uL and the “ALANINE AMINOTRANSFERASE” value [3] was 74 u/L. The ALBUMIN [3] was 4.47 G/DL, the “ALKALINE PHOSPHATASE” value [3] was 390 u/L and the “ASPARTATE AMINOTRANSFERASE” value [3] was 96.33 u/L. The “BLOOD UREA NITROGEN” value [3] was 19 mg/dL, the “CARBON DIOXIDE” value [3] was 28.67 mmol/L and the CHLORIDE [3] was 101.33 MEQ/L. For the same compound, the CHOLESTEROL [3] was 72 mg/dL, the “CREATINE PHOSPHOKINASE” value [3] was 380.67 u/L and the CREATININE [3] was 0.18 mg/dL. The GLUCOSE [3] was 132.33 mg/dL, the “LACTATE DEHYDROGENASE” value [3] was 150.33 u/L and the LIPASE [3] was 8 u/L. It also gave a PHOSPHORUS [3] of 11.9 mg/dL, a POTASSIUM [3] of 5.72 MEQ/L and an SODIUM [3] of 145.67 MEQ/L. For the same compound, the “TOTAL BILIRUBIN” value [3] was 0.23 mg/dL, the “TOTAL PROTEIN” value [3] was 6.3 G/DL and the “URIC ACID” value [3] was 1.5 mg/dL.

Reference: ChEMBL document CHEMBL3885881, “DrugMatrix”
